Results from patent publication US12291519B2, “2-hydroxycycloalkane-1-carbamoyl” (Idorsia Pharmaceuticals Ltd, priority 2019, dated 2025).
pIC50: −log10 of the molar value.

What was measured:
human Gal-1 (hGal-1) = test: Competitive binding assay: biotinylated hGal-1 binding to microplate-adsorbed asialofetuin (ASF); conditions: Activity on hGal-1; binding of biotinylated hGal-1 to ASF-coated plates; mean values
Protocol: (§1) Evaluation of Compound Inhibitory Activity (IC50)
The inhibitory activity of compounds is determined in competitive binding assays. This spectrophotometric assay measures the binding of biotinylated human Gal-3 (hGal-3) or human Gal-1 (hGAl-1), respectively, to a microplate-adsorbed glycoprotein, asialofetuin (ASF) (Proc Natl Acad Sci USA. 2013 Mar. 26; 110(13):5052-7.). Alternatively, and preferably, a human Gal-1 version in which all six cysteines are substituted by serines may be used.
Briefly, compounds are serially diluted in DMSO (working dilutions). ASF-coated 384 well pates are supplemented with 22.8 μL/well of biotinylated hGal-3 or hGal-1 in assay buffer (i.e. 300-1000 ng/mL biotinylated hGal-3 or hGal-1) to which 1.2 μL of compound working dilutions are added and mixed.
(§2) Plates are incubated for 3 hours at 4° C. then washed with cold assay buffer (3×50 uL), incubated for 1 hour with 25 μL/well of a streptavidin-peroxidases solution (diluted in assay buffer to 80 ng/mL) at 4° C., followed by further washing steps with assay buffer (3×50 uL). Finally, 25 μL/well of ABTS substrate is added. OD (410 nm) is recorded after 30 to 45 min and IC50 values are calculated.
(§3) The calculated IC50 values may fluctuate depending on the daily assay performance. Fluctuations of this kind are known to those skilled in the art. IC50 values from several measurements are given as mean values.

human Gal-3 (hGal-3) = human Gal-3 (hGal-3) (Homo sapiens (Human), UniProt P17931); test: Competitive binding assay: biotinylated hGal-3 binding to microplate-adsorbed asialofetuin (ASF); conditions: Activity on hGal-3; binding of biotinylated hGal-3 to ASF-coated plates; mean values
Protocol: as §1
The inhibitory activity of compounds is determined in competitive binding assays. […] Alternatively, and preferably, a human Gal-1 version in which all six cysteines are substituted by serines may be used.
Briefly, compounds are serially diluted in DMSO (working dilutions).
as §2, with “added.” for “added. OD (410 nm) is recorded after 30 to 45 min and IC50 values are calculated.”
as §3

human Gal-3 (hGal-3), sequence (P17931 whole entry): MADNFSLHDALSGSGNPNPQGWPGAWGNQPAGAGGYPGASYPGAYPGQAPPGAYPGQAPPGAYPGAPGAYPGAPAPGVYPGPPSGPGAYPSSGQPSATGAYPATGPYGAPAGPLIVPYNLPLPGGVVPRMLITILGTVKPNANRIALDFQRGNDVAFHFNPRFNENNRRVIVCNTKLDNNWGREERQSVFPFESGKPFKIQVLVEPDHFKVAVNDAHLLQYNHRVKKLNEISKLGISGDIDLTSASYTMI
human Gal-1 (hGal-1), sequence (P09382 2-135 limits assumed): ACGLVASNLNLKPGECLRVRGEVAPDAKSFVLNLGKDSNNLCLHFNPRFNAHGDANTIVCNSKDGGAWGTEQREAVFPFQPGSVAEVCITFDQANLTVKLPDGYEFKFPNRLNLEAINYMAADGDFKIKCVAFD

SMILES	pIC50 (human Gal-1 (hGal-1))	pIC50 (human Gal-3 (hGal-3))
CO[C@@H]1[C@@H](n2cc(-c3cc(F)c(F)c(F)c3)nn2)[C@@H](O)[C@@H](CO)O[C@H]1C(=O)N(Cc1sncc1Cl)[C@H]1CCCC[C@@H]1O [Example 31, (2R,3R,4S,5R,6R)-N-((4-chloroisothiazol-5-yl)methyl)-5-hydroxy-N-((1S,2S)-2-hydroxycyclohexyl)-6-(hydroxymethyl)-3-methoxy-4-(4-(3,4,5-trifluorophenyl)-1H-1,2,3-triazol-1-yl)tetrahydro-2H-pyran-2-carboxamide]	5.83	6.51
O=C([C@@H]1O[C@H](CO)[C@H](O)[C@H](n2cc(-c3cc(F)c(F)c(F)c3)nn2)[C@H]1O)N(Cc1ccccc1)[C@H]1CCCC[C@@H]1O [Example 1, (2R,3R,4S,5R,6R)-N-benzyl-3,5-dihydroxy-N-((1S,2S)-2-hydroxycyclohexyl)-6-(hydroxymethyl)-4-(4-(3,4,5-trifluorophenyl)-1H-1,2,3-triazol-1-yl)tetrahydro-2H-pyran-2-carboxamide]	5.19	6.81
COc1cc(C#N)cc(N(C(=O)[C@@H]2O[C@H](CO)[C@H](O)[C@H](n3cc(-c4ccc(C#N)c(F)c4)nn3)[C@H]2OC)[C@H]2CCCC[C@@H]2O)c1 [Example 205, (2R,3R,4S,5R,6R)-4-(4-(4-cyano-3-fluorophenyl)-1H-1,2,3-triazol-1-yl)-N-(3-cyano-5-methoxyphenyl)-5-hydroxy-N-((1S,2S)-2-hydroxycyclohexyl)-6-(hydroxymethyl)-3-methoxytetrahydro-2H-pyran-2-carboxamide]	5.74	7.06
CO[C@@H]1[C@@H](n2cc(-c3cc(F)c(F)c(F)c3)nn2)[C@@H](O)[C@@H](CO)O[C@H]1C(=O)N(c1cccc(C#N)c1)[C@H]1CCCC[C@@H]1O [Example 115, (2R,3R,4S,5R,6R)-N-(3-cyanophenyl)-5-hydroxy-N-((1S,2S)-2-hydroxycyclohexyl)-6-(hydroxymethyl)-3-methoxy-4-(4-(3,4,5-trifluorophenyl)-1H-1,2,3-triazol-1-yl)tetrahydro-2H-pyran-2-carboxamide]	6.00	7.60
CO[C@@H]1[C@@H](n2cc(-c3cc(F)c(F)c(F)c3)nn2)[C@@H](O)[C@@H](CO)O[C@H]1C(=O)N(c1ccccn1)[C@H]1CCCC[C@@H]1O [Example 194, (2R,3R,4S,5R,6R)-5-hydroxy-N-((1S,2S)-2-hydroxycyclohexyl)-6-(hydroxymethyl)-3-methoxy-N-(pyridin-2-yl)-4-(4-(3,4,5-trifluorophenyl)-1H-1,2,3-triazol-1-yl)tetrahydro-2H-pyran-2-carboxamide]	5.56	7.96
O=C([C@@H]1O[C@H](CO)[C@H](O)[C@H](n2cc(-c3cc(F)c(F)c(F)c3)nn2)[C@H]1O)N(CCc1ccccc1)[C@H]1CCCC[C@@H]1O [Example 4, (2R,3R,4S,5R,6R)-3,5-dihydroxy-N-((1S,2S)-2-hydroxycyclohexyl)-6-(hydroxymethyl)-N-phenethyl-4-(4-(3,4,5-trifluorophenyl)-1H-1,2,3-triazol-1-yl)tetrahydro-2H-pyran-2-carboxamide]	< 4.00	6.17
CO[C@@H]1[C@@H](n2cc(-c3cc(F)c(F)c(F)c3)nn2)[C@@H](O)[C@@H](CO)O[C@H]1C(=O)N(Cc1ncccc1C(F)(F)F)[C@H]1CCCC[C@@H]1O [Example 25, (2R,3R,4S,5R,6R)-5-hydroxy-N-((1S,2S)-2-hydroxycyclohexyl)-6-(hydroxymethyl)-3-methoxy-N-((3-(trifluoromethyl)pyridin-2-yl)methyl)-4-(4-(3,4,5-trifluorophenyl)-1H-1,2,3-triazol-1-yl)tetrahydro-2H-pyran-2-carboxamide]	5.31	6.55
O=C([C@@H]1O[C@H](CO)[C@H](O)[C@H](n2cc(-c3nc(Cl)cs3)nn2)[C@H]1O)N(Cc1ccccc1C(F)(F)F)[C@H]1CCCC[C@@H]1O [Example 71, (2R,3R,4S,5R,6R)-4-(4-(4-chlorothiazol-2-yl)-1H-1,2,3-triazol-1-yl)-3,5-dihydroxy-N-((1S,2S)-2-hydroxycyclohexyl)-6-(hydroxymethyl)-N-(2-(trifluoromethyl)benzyl)tetrahydro-2H-pyran-2-carboxamide]	5.88	6.84

These reach a higher pIC50 (human Gal-1 (hGal-1)). Values come first.

pIC50 (human Gal-1 (hGal-1))	pIC50 (human Gal-3 (hGal-3))	SMILES
6.59	7.96	CO[C@@H]1[C@@H](n2cc(-c3ccc(Cl)c(Cl)c3)nn2)[C@@H](O)[C@@H](CO)O[C@H]1C(=O)N(c1cc(Cl)cc(Cl)c1)[C@H]1CCCC[C@@H]1O [Example 189, (2R,3R,4S,5R,6R)-N-(3,5-dichlorophenyl)-4-(4-(3,4-dichlorophenyl)-1H-1,2,3-triazol-1-yl)-5-hydroxy-N-((1S,2S)-2-hydroxycyclohexyl)-6-(hydroxymethyl)-3-methoxytetrahydro-2H-pyran-2-carboxamide]
6.12	7.30	CO[C@@H]1[C@@H](n2cc(-c3cc(F)cc(Br)c3)nn2)[C@@H](O)[C@@H](CO)O[C@H]1C(=O)N(c1cc(C)cc(C#N)c1)[C@H]1CCCC[C@@H]1O [Example 146, (2R,3R,4S,5R,6R)-4-(4-(3-bromo-5-fluorophenyl)-1H-1,2,3-triazol-1-yl)-N-(3-cyano-5-methylphenyl)-5-hydroxy-N-((1S,2S)-2-hydroxycyclohexyl)-6-(hydroxymethyl)-3-methoxytetrahydro-2H-pyran-2-carboxamide]
6.05	7.38	COc1ccc(F)cc1-c1cn([C@H]2[C@@H](O)[C@@H](CO)O[C@@H](C(=O)N(c3cc(Cl)cc(C#N)c3)[C@H]3CCCC[C@@H]3O)[C@@H]2OC)nn1 [Example 76, (2R,3R,4S,5R,6R)-N-(3-chloro-5-cyanophenyl)-4-(4-(5-fluoro-2-methoxyphenyl)-1H-1,2,3-triazol-1-yl)-5-hydroxy-N-((1S,2S)-2-hydroxycyclohexyl)-6-(hydroxymethyl)-3-methoxytetrahydro-2H-pyran-2-carboxamide]
6.07	7.57	CO[C@@H]1[C@@H](n2cc(-c3cc(F)cc(Cl)c3)nn2)[C@@H](O)[C@@H](CO)O[C@H]1C(=O)N(c1cc(Cl)cc(Cl)c1)[C@H]1CCCC[C@@H]1O [Example 139, (2R,3R,4S,5R,6R)-4-(4-(3-chloro-5-fluorophenyl)-1H-1,2,3-triazol-1-yl)-N-(3,5-dichlorophenyl)-5-hydroxy-N-((1S,2S)-2-hydroxycyclohexyl)-6-(hydroxymethyl)-3-methoxytetrahydro-2H-pyran-2-carboxamide]
6.21	7.54	CO[C@@H]1[C@@H](n2cc(-c3ccc(C#N)c(F)c3)nn2)[C@@H](O)[C@@H](CO)O[C@H]1C(=O)N(c1cc(Cl)cc(C#N)c1)[C@H]1CCCC[C@@H]1O [Example 181, (2R,3R,4S,5R,6R)-N-(3-chloro-5-cyanophenyl)-4-(4-(4-cyano-3-fluorophenyl)-1H-1,2,3-triazol-1-yl)-5-hydroxy-N-((1S,2S)-2-hydroxycyclohexyl)-6-(hydroxymethyl)-3-methoxytetrahydro-2H-pyran-2-carboxamide]
6.12	7.20	CO[C@@H]1[C@@H](n2cc(-c3cc(F)cc(Cl)c3)nn2)[C@@H](O)[C@@H](CO)O[C@H]1C(=O)N(c1ccc(F)c(F)c1)[C@H]1CCCC[C@@H]1O [Example 134, (2R,3R,4S,5R,6R)-4-(4-(3-chloro-5-fluorophenyl)-1H-1,2,3-triazol-1-yl)-N-(3,4-difluorophenyl)-5-hydroxy-N-((1S,2S)-2-hydroxycyclohexyl)-6-(hydroxymethyl)-3-methoxytetrahydro-2H-pyran-2-carboxamide]
6.02	6.90	CO[C@@H]1[C@@H](n2cc(-c3cc(F)c(F)c(F)c3)nn2)[C@@H](O)[C@@H](CO)O[C@H]1C(=O)N(Cc1sccc1C)[C@H]1CCCC[C@@H]1O [Example 33, (2R,3R,4S,5R,6R)-5-hydroxy-N-((1S,2S)-2-hydroxycyclohexyl)-6-(hydroxymethyl)-3-methoxy-N-((3-methylthiophen-2-yl)methyl)-4-(4-(3,4,5-trifluorophenyl)-1H-1,2,3-triazol-1-yl)tetrahydro-2H-pyran-2-carboxamide]
6.39	7.85	CO[C@@H]1[C@@H](n2cc(-c3cc(F)c(F)c(F)c3)nn2)[C@@H](O)[C@@H](CO)O[C@H]1C(=O)N(c1cc(Cl)cc(Br)c1)[C@H]1CCCC[C@@H]1O [Example 96, (2R,3R,4S,5R,6R)-N-(3-bromo-5-chlorophenyl)-5-hydroxy-N-((1S,2S)-2-hydroxycyclohexyl)-6-(hydroxymethyl)-3-methoxy-4-(4-(3,4,5-trifluorophenyl)-1H-1,2,3-triazol-1-yl)tetrahydro-2H-pyran-2-carboxamide]
